Test results reported in patent publication EP4768485A1 (Guangzhou Baiyunshan Pharmaceutical Holdings Co., Ltd. …, priority 2023, dated 2025).
Values after ≈ are worked out from the molar mass of the structure shown. Where two headings read alike, the source gives them in different places.

Legend:
SaFabI = SaFabI (Staphylococcus aureus, UniProt Q6GI75); test: FabI enzymatic activity by NADH/NADPH oxidation (fluorescence), SaFabI; settings: SaFabI IC50, 15 nmol/L SaFabI; trans-octenoyl-CoA and NADPH; pH 6.5
Protocol: (§4) In this test example, the enzymatic activity was evaluated by monitoring the oxidation of cofactor NADH/NADPH using a microplate reader.
(§5) The compound was dissolved in DMSO and added to a 384-well plate using ECHO665. Serial 3-fold or 4-fold dilutions were prepared to generate 10 dose points with two replicates per concentration, ensuring a final DMSO concentration 1% in each reaction well. Then, a FabI protein solution was added, and the protein was prepared in a buffer containing 100 mmol/L PBS, 0.05% Tween-20, and 150 mmol/L NaCl (pH 6.5), so that the final concentrations of SaFabI and EcFabI proteins were 15 nmol/L and 9 nmol/L, respectively. The prepared 5 µL of 15 nmol/L SaFabI and 9 nmol/L EcFabI were added to a 384-well assay plate, and centrifuged at 1000 rpm for 1 minute. Then, the plate was pre-incubated in a temperature-controlled shaker at 30 °C for 20 minutes. Moreover, substrates trans-octenoyl-CoA, NADPH, trans-dodecenoyl-CoA, and NADH were diluted in a buffer containing 100 mmol/L PBS, 0.05% Tween-20, and 15 0 mmol/L NaCl (pH 6.5) respectively, and their concentrations were adjusted to 300 µmol/L, 300 µmol/L, 600 µmol/L, and 150 µmol/L, respectively. For SaFabI, 5 µL of 300 µmol/L trans-octenoyl-CoA and 5 µL of 300 µmol/L NADPH were added to initiate the reaction. Immediately after initiation, the plate was placed into the microplate reader, and fluorescence signals (Ex 340 nm/Em 460 nm) were recorded every 0.5 minutes for at least 10 minutes. Similarly, 5 µL of 600 µmol/L trans-dodecenoyl-CoA and 5 µL of 150 µmol/L NADH were added to initiate reaction of EcFabI. Immediately after initiation, the plate was immediately placed into the microplate reader, and fluorescence signals (Ex 340 nm/Em 460 nm) were recorded every 0.5 minutes for at least 10 minutes. The reaction rate (fluorescence signal per minute) of each well was calculated from the fluorescence values. The inhibitory effect of the compound on the protein was then calculated based on the reaction rate, and the IC50 value for inhibition of enzyme activity by the compound was determined by fitting the data using GraphPad Prism 6 with log (inhibitor) vs. response variable slope model. The fitting equation is: Y=Bottom + (Top-Bottom)/(1+10^((LogIC50-X)*HillSlope)), wherein Y represents the known percentage of residual enzyme activity, and X represents the known Log concentration of the compound.

[1] = system: Acinetobacter baumannii ARLG 1852; test: MIC, agar plate two-fold dilution; assay type: cell-based
Protocol: (§1) In this test example, the minimum inhibitory concentration (MIC) of the compound was determined.
(§2) The test drug concentration was set to be within a range of 0.008 µg/mL to 128 µg/mL in a two-fold serial dilution using an agar plate two-fold dilution method. The sample was dissolved in DMSO to prepare a 2 mL solution with a concentration of 1.92 mg/mL. The control group was prepared in sterile distilled water to obtain a concentration of 1.92 mg/mL. 1 mL of the prepared drug solution was added to a sterile culture dish, followed by addition of 14 mL of MHA culture medium at approximately 60°C. After thorough mixing, 1 mL of sterilized distilled water was added for two-fold dilution, resulting in a final drug concentration of 64 µg/mL, 32 µg/mL, 16 µg/mL, 8 µg/mL, 4 µg/mL, 2 µg/mL, 1 µg/mL, 0.5 µg/mL, 0.25 µg/mL, 0.125 µg/mL, 0.06 µg/mL, 0.03 µg/mL, 0.015 µg/mL, and 0.008 µg/mL (wherein the final concentrations of samples 2, 4, and 9 were diluted downward starting from 128 µg/mL), and set aside for later use. The prepared bacterial suspension was inoculated onto drug-containing MHA culture medium with a multi-point inoculator, with an inoculation volume of approximately 10^4 CFU per point. A sterile control group (1 mL DMSO + 14 mL MHA culture medium and 1 mL sterile distilled water + 14 mL MHA culture medium) was set up.

[2] = system: Klebsiella pneumoniae ATCC BAA 2472; test: MIC, agar plate two-fold dilution; assay type: cell-based
Protocol: as §1, §2

[3] = system: Escherichia coli. ATCC 25923; test: MIC, agar plate two-fold dilution; assay type: cell-based; settings: MHA, 37°C, 16-20 hours; for Minimum Inhibitory Concentration MIC: Escherichia coli. ATCC 25923; for MIC: Escherichia coli, ATCC25923, read-out: Minimum Inhibitory Concentration MIC, Escherichia coli. ATCC 25923
Protocol: as §1, §2

MRSA NRS 384 = test: MIC, agar plate two-fold dilution; assay type: cell-based, Staphylococcus aureus; settings: MHA, 37°C, 16-20 hours; for MIC: Staphylococcus aureus
Protocol: as §1, §2

VRSA VRS 1 = test: MIC, agar plate two-fold dilution; assay type: cell-based, Staphylococcus aureus; settings: MHA, 37°C, 16-20 hours; for MIC: Staphylococcus aureus
Protocol: as §1, §2

MSSA ATCC 29213 = test: MIC, agar plate two-fold dilution; assay type: cell-based, Staphylococcus aureus; settings: MHA, 37°C, 16-20 hours; for MIC: Staphylococcus aureus
Protocol: as §1, §2

EcFabI = EcFabI (Escherichia coli, UniProt P0AEK4); test: FabI enzymatic activity by NADH/NADPH oxidation (fluorescence), EcFabI; assay type: biochemical; settings: 9 nmol/L EcFabI; trans-dodecenoyl-CoA and NADH; pH 6.5
Protocol: as §4, §5

Escherichia coli. = test: MIC, agar plate two-fold dilution; assay type: cell-based; settings: ATCC25923; Escherichia coli. ATCC 25923; MHA, 37°C, 16-20 hours; read-out: Minimum Inhibitory Concentration MIC
Protocol: as §1, §2

[4] = Pharmacokinetic study in rats; assay type: in vivo, Sprague-Dawley (SD) rats; settings: oral gavage
Protocol: In this test experiment, a pharmacokinetic study of the compound in rats was conducted.
Twelve healthy adult female Sprague-Dawley (SD) rats (purchased from Beijing Vital River Laboratory Animal Technology Co., Ltd., China) with an average body weight of about 180-220 g were selected, and divided into four groups (n=3 per group). Two groups were administered via tail vein injection, while the other two groups were administered via oral gavage. Compound 1b was dissolved in a vehicle containing 5% DMSO, 30% PEG400, and 65% H2O, and Debio-1450 was dissolved in physiological saline, both of which were formed into a stable clear solution for later use. Animals were fasted for 12 hours before administration and resumed normal feeding 2 hours post administration. Then, blood samples were collected through the jugular vein at the following time points: 0.083 h, 0.25 h, 0.5 h, 1 h, 2 h, 4 h, 8 h, 24 h (tail vein injection) and 0.25 h, 0.5 h, 1 h, 2 h, 4 h, 8 h, 24 h (oral gavage administration), respectively, with a blood collection volume of about 200-400 µL. Whole blood collected at each time point was immediately transferred into an anticoagulant tube containing K2EDTA, then stored on ice in an insulated container. All samples were centrifuged within 15 minutes at 4600 r/min and 4°C for 5 minutes to separate plasma. The concentration of the compound in the plasma of each rat was determined using LC-MS/MS method, and the pharmacokinetic parameter was calculated from the drug concentration-time profile. Table 4 Oral Pharmacokinetic Parameters of Compound 1b/Debio-1450 In Rats

[5] = system: methicillin-resistant S. aureus (NRS384); test: Systemic infection model in mice, in vivo efficacy; parameters: species or system Balb/c mice; settings: single-dose oral administration, 0.3, 1.0, 3.0 mg/Kg; vs linezolid 3 mg/Kg and Debio-1450
Protocol: In this test experiment, the in vivo efficacy of the compound in mice was evaluated using a systemic infection model.
Ninety healthy adult male Balb/c mice (purchased from Beijing Vital River Laboratory Animal Technology Co., Ltd. , China) were selected, and divided into 10 groups, including one negative control group (9 mice, inoculated with bacteria and given vehicle), one positive control group (9 mice, vancomycin), one linezolid test group (9 mice), three test groups of high, medium, and low doses (3 ×9 mice) for compound 1a, three test groups of high, medium, and low doses (3 ×9 mice) for Debio-1450, and one test group for Debio-1452 (9 mice). All mice were acclimatized for 3-4 days before testing. The strain inoculated in this test example was methicillin-resistant S. aureus (NRS384), which was administered via tail vein injection at a dose of 1.0 × 10^8 CFU/mouse. The compound was administered 0.5 h post inoculation with the strain. The compound 1a and Debio-1452 were formulated in a vehicle containing 5% DMSO, 30% PEG400, and 65% H2O, while Debio-1450 was formulated in an isotonic glucose solution (freshly prepared) as the vehicle and was administered orally as a single dose. The specific dosing regimen is shown in Table 5: Table 5 Dosing Regimen for Systemic Infection Efficacy Model

[6] = system: Haemophilus influenzae ATCC29213; test: MIC, antibacterial spectrum; assay type: cell-based
Protocol: as §2
(§3) Referring to the minimum inhibitory concentration test method mentioned above, the antibacterial spectrum of compound 1b was tested. […] Table 3 Antibacterial Spectrum Testing of Compound 1b MIC (µg/mL)

[7] = system: Moraxella catarrhalis ATCC43617; test: MIC, antibacterial spectrum; assay type: cell-based
Protocol: as §2, §3

[8] = system: Enterococcus faecalis ATCC51299; test: MIC, antibacterial spectrum; assay type: cell-based
Protocol: as §2, §3

[9] = system: Neisseria gonorrhoeae ATCC49226; test: MIC, antibacterial spectrum; assay type: cell-based
Protocol: as §2, §3

[10] = system: Pseudomonas aeruginosa ATCC12055; test: MIC, antibacterial spectrum; assay type: cell-based
Protocol: as §2, §3

[11] = system: Enterobacter cloacae ATCC13047; test: MIC, antibacterial spectrum; assay type: cell-based
Protocol: as §2, §3

[12] = system: Staphylococcus haemolyticus CICC23976; test: MIC, antibacterial spectrum; assay type: cell-based
Protocol: as §2, §3

[13] = system: Klebsiella pneumoniae ATCC2055; test: MIC, antibacterial spectrum; assay type: cell-based
Protocol: as §2, §3

[14] = system: Salmonella Typhi CMCC12055; test: MIC, antibacterial spectrum; assay type: cell-based; settings: Salmonella enterica
Protocol: as §2, §3

[15] = system: Staphylococcus epidermidis ATCC35983; test: MIC, antibacterial spectrum; assay type: cell-based
Protocol: as §2, §3

[16] = system: Staphylococcus hominis ATCC27844; test: MIC, antibacterial spectrum; assay type: cell-based
Protocol: as §2, §3

[17] = system: Acinetobacter baumannii ATCC17979; test: MIC, antibacterial spectrum; assay type: cell-based
Protocol: as §2, §3

[18] = Acinetobacter baumannii ARLG 1852, MHA, 37°C, 16-20 hours
[19] = Klebsiella pneumoniae ATCC BAA 2472, MHA, 37°C, 16-20 hours
[20] = Acinetobacter baumannii, ARLG1852, read-out: Minimum Inhibitory Concentration MIC
[21] = Klebsiella pneumoniae, BAA2472, read-out: Minimum Inhibitory Concentration MIC
[22] = MRSA|NRS384, read-out: Minimum Inhibitory Concentration MIC, MRSA NRS 384
[23] = VRSA, read-out: Minimum Inhibitory Concentration MIC, VRSA VRS 1
[24] = ATCC29213|MSSA, read-out: Minimum Inhibitory Concentration MIC, MSSA ATCC 29213
[25] = female, Sprague-Dawley, rat, 10 mg/Kg, plasma
[26] = female, Sprague-Dawley, rat, in vivo, 15 mg/Kg, plasma

Chain of EcFabI (P0AEK4 whole entry): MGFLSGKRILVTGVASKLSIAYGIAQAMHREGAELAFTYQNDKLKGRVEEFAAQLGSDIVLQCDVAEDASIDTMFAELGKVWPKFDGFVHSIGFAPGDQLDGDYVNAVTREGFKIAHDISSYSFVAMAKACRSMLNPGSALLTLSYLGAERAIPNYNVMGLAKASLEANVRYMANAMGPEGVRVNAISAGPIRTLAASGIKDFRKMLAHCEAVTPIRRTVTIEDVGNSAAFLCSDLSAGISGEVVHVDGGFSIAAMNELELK
Chain of SaFabI (Q6GI75 whole entry): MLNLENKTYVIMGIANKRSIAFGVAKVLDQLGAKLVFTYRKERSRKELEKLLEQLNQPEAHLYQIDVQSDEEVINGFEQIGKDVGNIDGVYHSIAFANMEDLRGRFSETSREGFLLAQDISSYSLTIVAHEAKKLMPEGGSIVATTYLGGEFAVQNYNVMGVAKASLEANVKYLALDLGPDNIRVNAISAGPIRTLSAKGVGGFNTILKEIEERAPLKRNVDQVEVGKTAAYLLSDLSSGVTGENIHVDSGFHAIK

Compound	IC50 (SaFabI) [nM]	Minimum Inhibitory Concentration MIC [1, 18] [µg/mL]	Minimum Inhibitory Concentration MIC [2, 19] [µg/mL]	Minimum Inhibitory Concentration MIC [3] [µg/mL]	Minimum Inhibitory Concentration MIC (MRSA NRS 384; MRSA NRS 384) [µg/mL]	Minimum Inhibitory Concentration MIC (VRSA VRS 1; VRSA VRS 1) [µg/mL]	Minimum Inhibitory Concentration MIC (MSSA ATCC 29213; MSSA ATCC 29213) [µg/mL]	IC50 (EcFabI) [nM]	MIC [1, 20] [µg/mL]	MIC [2, 21] [µg/mL]	MIC [3] [µg/mL]	MIC (MRSA NRS 384; [22]) [µg/mL]	MIC (MSSA ATCC 29213; [24]) [µg/mL]	further results
Cc1c(CN(C)C(=O)/C=C/c2cnc3c(c2)C2CC2(N)C(=O)N3)oc2c(C3CC3)cccc12 (single isomer, unassigned) [Compound 2b]	12	>32	32	>16	<0.008	0.06	0.016	13	–	–	–	–	–	–
Cc1c(CN(C)C(=O)/C=C/c2cnc3c(c2)CCC(=O)N3)oc2ccccc12 [Debio-1452, reference compound]	2	–	–	–	–	–	–	3	–	–	–	–	–	MIC (Escherichia coli.): 4 µg/mL (≈ 10.7 µM); MIC ([1]; ARLG1852, Acinetobacter baumannii ARLG 1852, MHA, 37°C, 16-20 hours, read-out: Minimum Inhibitory Concentration MIC): > 8 µg/mL; MIC ([2]; BAA2472, Klebsiella pneumoniae ATCC BAA 2472, MHA, 37°C, 16-20 hours, read-out: Minimum Inhibitory Concentration MIC): > 8 µg/mL; MIC (MRSA NRS 384; MRSA NRS 384, read-out: Minimum Inhibitory Concentration MIC): < 0.008 µg/mL; MIC (VRSA VRS 1; VRSA VRS 1, read-out: Minimum Inhibitory Concentration MIC): 0.12 µg/mL (≈ 0.32 µM); MIC (MSSA ATCC 29213; MSSA ATCC 29213, read-out: Minimum Inhibitory Concentration MIC): < 0.008 µg/mL
Cc1c(CN(C)C(=O)/C=C/c2cnc3c(c2)C2CC2(N)C(=O)N3)oc2c(C3CC3)cccc12 (single isomer, unassigned) [Compound 2a]	10	–	–	–	–	–	–	6	> 32	32 (≈ 72.3 µM)	8 (≈ 18.1 µM)	< 0.008	< 0.008	MIC (VRSA VRS 1; [23]): 0.06 µg/mL (≈ 0.136 µM)
Cc1c(CN(C)C(=O)/C=C/c2cnc3c(c2)C2CC2(N)C(=O)N3)oc2ccccc12 (stereo not drawn) [Compound 3a]	10	–	–	–	–	–	–	7	> 32	> 32	8 (≈ 19.9 µM)	0.03 (≈ 0.0745 µM)	0.03 (≈ 0.0745 µM)	MIC (VRSA VRS 1; [23]): 0.5 µg/mL (≈ 1.24 µM)
Cc1c(CN(C)C(=O)/C=C/c2cnc3c(c2)CCC(=O)N3COP(=O)(O)O)oc2ccccc12 [Debio-1450]	–	–	–	–	–	–	–	–	–	–	–	–	–	Cmax [4, 25]: 2210 ng/mL; Tmax [4, 25]: 0.67 h; half-life [4, 25]: 4.2 h; F ([4]; 10 mg/Kg vs tail vein injection): 97%
Cc1c(CN(C)C(=O)/C=C/c2cnc3c(c2)C2CC2(N)C(=O)N3)oc2ccccc12 (stereo not drawn) [Compound 3b]	–	>32	>32	8	0.016	0.25	0.016	–	–	–	–	–	–	–
Cc1c(CN(C)C(=O)/C=C/c2cnc3c(c2)C2CC2(N)C(=O)N3)oc2c(C)cccc12 (stereo not drawn) [Compound 1a]	5	–	–	–	–	0.25	–	4	> 32	16 (≈ 38.4 µM)	4 (≈ 9.6 µM)	< 0.008	< 0.008	efficacy compared with the reference compounds [5]: markedly superior efficacy to linezolid and better efficacy than Debio-1450
Cc1c(CN(C)C(=O)/C=C/c2cnc3c(c2)C2CC2(N)C(=O)N3)oc2c(C)cccc12 (stereo not drawn) [Compound 1b]	12	>32	16	4	<0.008	0.12	<0.008	5	–	–	–	–	–	Tmax [4, 26]: 1.5 h; half-life [4, 26]: 2.57 h; F ([4]; 15 mg/Kg vs tail vein injection): 110%; antibacterial activity (in words) [6]: good antibacterial activity; MIC ([6]; ATCC29213): 0.25 µg/mL (≈ 0.6 µM); antibacterial activity (in words) ([7]; Moraxella catarrhalis): excellent antibacterial activity; MIC ([7]; Moraxella catarrhalis ATCC43617): < 0.06 µg/mL; MIC [8]: > 64 µg/mL; MIC [9]: 8 µg/mL (≈ 19.2 µM); MIC [10]: > 64 µg/mL; MIC [11]: 8 µg/mL (≈ 19.2 µM); MIC [12]: < 0.06 µg/mL; MIC [13]: 8 µg/mL (≈ 19.2 µM); MIC [14]: 4 µg/mL (≈ 9.6 µM); antibacterial activity (in words) ([15]; Staphylococcus epidermidis): excellent antibacterial activity; MIC ([15]; Staphylococcus epidermidis ATCC35983): < 0.06 µg/mL; antibacterial activity (in words) ([16]; Staphylococcus hominis): excellent antibacterial activity; MIC ([16]; Staphylococcus hominis ATCC27844): < 0.06 µg/mL; MIC [17]: 32 µg/mL (≈ 76.8 µM)
